Data on two compounds can be found in publication PMC9304199, “A small molecule CFTR potentiator restores ATP‐dependent channel gating to the cystic fibrosis mutant G551D‐CFTR” (British Journal of Pharmacology, 2022).

One may read the EC50 as the concentration at which the effect is half-maximal.

Test [1] concerns the target T1, G551D‐CFTR (Homo sapiens, UniProt P13569, G551D). In words: Ussing chamber apical Cl− current (ICl apical) in FRT epithelia expressing G551D‐CFTR. The format is cell-based. Details: assays at Charles River Laboratories (ChanTest). Conditions: for EC50: G551D‐CFTR FRT epithelia, ICl apical, 27°C, read-out: EC50 (μM) (95% CI); for Emax: read-out: Maximal effect (%) (95% CI). The procedure:
Ussing chamber studies to determine the concentration–response relationships of CFTR potentiators (Figure 1c–f) were performed at Charles River Laboratories (ChanTest) (Cleveland, OH, USA). For these studies, FRT cells were stably transfected with CFTR cDNAs with the F508del and G551D variants and the common polymorphism M470 (synthesised by System Biosciences, Palo Alto, CA, USA) using the Flp‐In™ system (Thermo Fisher Scientific, Waltham, MA, USA). The F508del‐CFTR cDNA contained the following differences from the canonical CFTR cDNA sequence (NCBI Accession Number NM_000492): del CTT (1521–1523) to delete F508; synonymous changes T > C (798), A > G (801), T > C (804) to remove a cryptic bacterial promoter; synonymous change T > C (1095); G > A (1408) to give M470 and was amplified using the primers 5′ […] 3′ and 5′ […] 3′. The G551D‐CFTR cDNA contained the following differences from the canonical CFTR cDNA sequence (NCBI Accession Number NM_000492): G > A (1652) to replace G551 with D551; synonymous changes T > C (798), A > G (801), T > C (804) to remove a cryptic bacterial promoter; synonymous change A > C (516); synonymous change T > C (1095); G > A (1408) to give M470 and was amplified using the primers 5′ […] 3′ and 5′ […] 3′. Using Kpn1 and Not1 restriction sites, the F508del‐ and G551D‐CFTR cDNAs were inserted into pcDNA5/FRT (Flp‐In™) (RRID:Addgene_31984). An FRT cell line stably expressing a flippase (Flp)‐recombinase recognition target integration site (generated by Evotec AG, Hamburg, Germany, using isogenic FRT cells from LJV Galietta) was transfected with the F508del‐ and G551D‐CFTR plasmids and the Flp recombinase plasmid pOG44 (RRID:Addgene_129419) following the manufacturer's instructions. To identify FRT cells expressing F508del‐ and G551D‐CFTR, cells were grown under hygromycin selection and individual clones picked, expanded, and verified for CFTR expression. For Ussing chamber studies to determine the plasma membrane stability of F508del‐CFTR, FRT cells expressing F508del‐CFTR from LJV Galietta were cultured and used as described previously (Meng et al., [2017]).
To grow FRT cells as polarised epithelia, 2 × 10^5 FRT cells were seeded on Snapwell filter inserts and cultured for 7–14 days before use; media were changed every 2–3 days. […]
To test the effects of CP‐628006 on CFTR Cl^− channels in the apical membrane of FRT epithelia, we permeabilized the basolateral membrane with amphotericin B (100 μM). After cancelling voltage offsets, we clamped transepithelial voltage at 0 mV and measured apical Cl^− current (ICl ^apical) continuously using a Physiologic Instruments VCC MC6/8 multichannel voltage/current clamp (Li et al., [2004]).

Test [2] addresses T1, G551D‐CFTR. In words: Automated planar patch-clamp whole-cell Cl− currents in HEK cells. The class given is cell-based. Details: expressed in transfected cells. The conditions noted are these: for EC50: G551D‐CFTR HEK cells, whole-cell currents, automated electrophysiology, 23°C, read-out: EC50 (μM) (95% CI); for Emax: HEK293, read-out: Maximal effect (%) (95% CI). The method, then:
For CFTR studies using automated electrophysiology and single-channel recording, we used baby hamster kidney (BHK) cells (RRID:CVCL_1915) and human embryonic kidney (HEK) 293 cells (RRID:CVCL_0045) stably expressing wild-type human CFTR and the CFTR variants F508del- and […] et al., [2002]; Xu et al., [2014]). […] HEK cells expressing CFTR variants were generated using the Flp-InTM system as described above for F508del- and G551D-CFTR-expressing FRT cells. They were cultured in Dulbecco's modified Eagle's medium (glucose, 1.5 g·L^-1; sodium pyruvate, 110 mg·L^-1) supplemented with 10% FBS (PAA Laboratories), GlutaMAXTM and hygromycin-B (150 μg·ml^-1; InvitrogenTM, Thermo Fisher Scientific) at 37°C in a humidified atmosphere with 5% CO2. Prior to study, F508del-CFTR expressed in HEK cells was trafficked to the plasma membrane by low temperature incubation (27°C for 24-72 h). The single-channel behaviour of human CFTR in excised membrane patches from different mammalian cell lines heterologously expressing CFTR is equivalent (wild-type CFTR, Chen et al., [2009]; F508del-CFTR, Bose et al., [2019]; and G551D-CFTR, J Liu, Y Wang, Z Cai, and DN Sheppard, unpublished observations). […] The continuous lines are the fit of sigmoidal concentration-response functions to mean data. […] (Figure S2D: Normality Test (Shapiro-Wilk), P = 0.124 (passed); Equal Variance Test (Brown-Forsythe), P = 0.092 (passed)). Click here for additional data file.
On the technique in general: The patch-clamp technique gives a direct electrical read-out from membranes.

T1 sequence (P13569 whole entry G551D): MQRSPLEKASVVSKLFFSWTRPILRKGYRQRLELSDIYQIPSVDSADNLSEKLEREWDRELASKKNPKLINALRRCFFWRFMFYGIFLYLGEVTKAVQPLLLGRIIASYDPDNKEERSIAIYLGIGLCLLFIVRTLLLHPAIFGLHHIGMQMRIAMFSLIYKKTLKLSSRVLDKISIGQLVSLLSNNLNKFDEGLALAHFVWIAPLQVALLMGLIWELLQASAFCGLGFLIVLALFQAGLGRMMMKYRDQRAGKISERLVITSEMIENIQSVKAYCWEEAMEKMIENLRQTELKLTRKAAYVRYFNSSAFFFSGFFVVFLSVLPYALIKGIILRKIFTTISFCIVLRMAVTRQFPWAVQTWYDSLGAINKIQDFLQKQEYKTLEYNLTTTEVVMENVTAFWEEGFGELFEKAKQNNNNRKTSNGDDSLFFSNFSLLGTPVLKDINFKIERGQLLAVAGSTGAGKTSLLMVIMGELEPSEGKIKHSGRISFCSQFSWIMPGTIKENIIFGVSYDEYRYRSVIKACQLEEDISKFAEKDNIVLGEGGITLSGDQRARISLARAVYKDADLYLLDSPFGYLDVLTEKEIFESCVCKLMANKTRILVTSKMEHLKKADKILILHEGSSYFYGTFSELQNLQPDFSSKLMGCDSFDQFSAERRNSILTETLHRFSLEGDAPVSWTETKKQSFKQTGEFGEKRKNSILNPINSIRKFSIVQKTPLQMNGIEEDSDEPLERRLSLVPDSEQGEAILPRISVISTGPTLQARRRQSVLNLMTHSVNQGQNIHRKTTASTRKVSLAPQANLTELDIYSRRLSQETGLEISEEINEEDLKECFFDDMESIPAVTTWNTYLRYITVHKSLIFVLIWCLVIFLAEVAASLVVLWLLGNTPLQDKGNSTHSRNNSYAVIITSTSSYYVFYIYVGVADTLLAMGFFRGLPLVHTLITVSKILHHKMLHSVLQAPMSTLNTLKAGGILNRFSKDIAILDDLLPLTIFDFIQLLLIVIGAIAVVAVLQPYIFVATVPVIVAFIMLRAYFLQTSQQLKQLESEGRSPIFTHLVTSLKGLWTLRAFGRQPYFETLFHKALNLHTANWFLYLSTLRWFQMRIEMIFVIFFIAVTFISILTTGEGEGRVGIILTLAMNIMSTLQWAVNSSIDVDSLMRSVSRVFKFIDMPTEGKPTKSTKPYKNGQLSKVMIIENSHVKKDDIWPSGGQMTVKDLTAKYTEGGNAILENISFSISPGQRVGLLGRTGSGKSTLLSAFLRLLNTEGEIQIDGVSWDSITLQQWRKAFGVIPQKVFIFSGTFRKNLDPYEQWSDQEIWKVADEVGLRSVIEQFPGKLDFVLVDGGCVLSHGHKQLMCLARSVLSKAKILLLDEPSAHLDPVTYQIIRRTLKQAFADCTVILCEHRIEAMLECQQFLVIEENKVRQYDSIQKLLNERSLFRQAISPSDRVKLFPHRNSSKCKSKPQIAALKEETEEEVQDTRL

Take `Cc1ncccc1CNC(=O)c1ccc2c(c1)CC[C@H]1C[C@](O)(CCC(F)(F)F)CC[C@]21Cc1ccccc1` (racemic) [CP‐628006, rac‐(4bR,7R,8aS)‐4b‐benzyl‐7‐hydroxy‐N‐((2‐methylpyridin‐3‐yl)methyl)‐7‐(3,3,3‐trifluoropropyl)‐4b,5,6,7,8,8a,9,10‐octahydrophenanthrene‐2‐carboxamide]: the results for the EC50 on G551D‐CFTR [1] and on G551D‐CFTR [2] were 1.68 µM and 5.13 µM, respectively. The Emax turned out to be 39% at G551D‐CFTR [1] and 72% on G551D‐CFTR [2].
The corresponding values for `CC(C)(C)c1cc(C(C)(C)C)c(NC(=O)c2c[nH]c3ccccc3c2=O)cc1O` [ivacaftor, reference compound] are 0.003 µM, 0.82 µM, 97% and 70%.
